How the values were obtained:
[1] = Corrosion wheel test, sweet (50-50 3% NaCl brine - Mentor, saturated CO2 only), Tables III, VI, VII; settings: 160° F., 24 hours, saturated CO2 only
[2] = Corrosion wheel test, sour (3% NaCl brine, saturated N2 + 500 ppm H2S), Table II; settings: 160° F., 24 hours, 3% NaCl brine only
Procedure: (§1) Twelve quaternary ammonium salts according to the present invention, were tested under four standard sets of corrosion wheel test conditions. These include a sweet-sour test in an all water system under a range of concentrations from 4-256 ppm (TABLE I). Tests 2 and 3 were run under sweet (TABLE III), and sour conditions (TABLE II) at low (4 ppm) and high (256 ppm) concentrations only. A film persistency test (TABLE IV) was also run for completeness of the screening sequence; however, it was not expected that these water soluble compounds would perform well under these test conditions. Due to the low solubility of some C18 derivatives, 20% activity was adopted as a standard, with the C18 compounds being submitted at 10% activity and added at double concentration to the test fluids. […] Compounds are generally water and low brine soluble, hydrocarbon dispersible with some C18 derivatives being soluble in both fresh water and hydrocarbon.
Blank weight loss: 55.8 ± 1.0 mg
(§2) Fluids: 3% NaCl brine only
Saturated N2 + 500 ppm H2 S
Duplicates and triplicate blanks

[3] = Film persistent corrosion wheel test (50-50 3% NaCl brine - Mentor, saturated CO2 + 100 ppm H2S), Table IV; settings: 160° F., film 1 hr, rinse 1 hr, run 24 hrs, single data points
Procedure: as §1
Blank weight loss: 58.3 ± 3.3 mg
Film 1 hr, Rinse 1 hr, Run 24 hrs.
(§3) Fluids: 50-50 3% NaCl brine - Mentor
(§4) Saturated CO2 + 100 ppm H2 S
Single data points with triplicate blanks

[4] = Corrosion wheel test, sweet (50-50 3% NaCl brine - Mentor, saturated CO2 only), Tables III, VI, VII; settings: Table III, 160° F., 24 hours
Procedure: Twelve quaternary ammonium salts according to the present invention, were tested under four standard sets of corrosion wheel test conditions. These include a sweet-sour test in an all water system under a range of concentrations from 4-256 ppm (TABLE I). Tests 2 and 3 were run under sweet (TABLE III), and sour conditions (TABLE II) at low (4 ppm) and high (256 ppm) concentrations only.
as §3
(§5) Duplicates w/ triplicate blanks
Fluids: 50-50 - 3% NaCl brine - Mentor

[5] = Inhibitor solubility test, Table V; type: physicochemical; settings: 20% active inhibitor added at 0.5% by volume; observed initially and after 24 hours
[6] = Corrosion wheel test, sweet-sour, all water system (3% NaCl brine, saturated CO2 + 100 ppm H2S), Table I; settings: 160° F., 24 hours, 3% NaCl brine only
Procedure: as §1
Blank weight loss: 40 ± 0.9 mg
as §2, §4, §5

[7] = Table VII, thiol addition comparison

| SMILES | % Protection @ 2 ppm ([1]; Table VI confirmatory test) [%] | % Protection @ 4 ppm ([1]; Table VI confirmatory test) [%] | % Protection @ 8 ppm ([1]; Table VI confirmatory test) [%] | % Protection @ 32 ppm ([1]; Table VI confirmatory test) [%] | % Protection @ 128 ppm ([1]; Table VI confirmatory test) [%] | % Protection @ 2 ppm [1, 7] [%] | % Protection @ 8 ppm [1, 7] [%] | % Protection @ 128 ppm [1, 7] [%] | % Protection @ 4 ppm [2] [%] | % Protection @ 256 ppm [2] [%] | % Protection @ 10,000 ppm [3] [%] | % Protection @ 4 ppm [4] [%] | Solubility in 5% NaCl brine [5] | Solubility in aromatic naphtha [5] | Solubility in distilled water [5] | Solubility in kerosene [5] | % Protection @ 4 ppm [6] [%] | % Protection @ 8 ppm [6] [%] | % Protection @ 16 ppm [6] [%] | % Protection @ 256 ppm [6] [%] | also measured |
| --- | --- | --- | --- | --- | --- | --- | --- | --- | --- | --- | --- | --- | --- | --- | --- | --- | --- | --- | --- | --- | --- |
| CCCCCCCCCCCC[N+](C)(C)CCS [Compound 2] | 13 | 42 | 69 | 82 | 80 | 23 | 72 | 84 | 23 | 79 | 64 | 56 | disp | disp | sol | disp | 35 | 44 | 67 | 77 | % Protection @ 256 ppm [4]: 81% |
| CCCCCCCCCCCCCCCCCC[N+](C)(C)CCCS [Compound 6] | 30 | 74 | 75 | 80 | 85 | – | – | – | 14 | 71 | 71 | 83 | insol | disp | sol | disp | 11 | 26 | 59 | 75 | – |
| CCCCCCCC[N+](C)(C)CCCS [Compound 4] | 41 | 63 | 82 | 80 | 78 | 62 | 86 | 85 | 3 | 81 | 14 | 83 | disp | disp | sol | disp | 32 | 55 | 66 | 76 | % Protection @ 256 ppm [4]: 86% |
